Test results published in patent US20160039880A1 (priority 2012, published 2016).
Values after ≈ are worked out from the molar mass of the structure shown. Where two headings read alike, the source gives them in different places. Starred links: 1 amine or outer side, 2 acyl side, 3 side chain; linkers in the order of their positions; H or OH if unused. Non-standard residues stand in square brackets, D forms with d. Residues, ends and D or L forms follow the SMILES beside them. X2 = CC(CCN1CCOCC1)C(O)C(C(=O)[*:2])N(C)[*:1]; X1 = CCN(C(C(=O)[*:2])C(C)C)[*:1]; NMeL = CN[CH](CC(C)C)C(=O)O; NMeV = CN[CH](C(=O)O)C(C)C; NMeA = CN[CH](C)C(=O)O; Abu = CC[CH](N)C(=O)O

Key:
[1] = biological target: Human recombinant cyclophilin A (Cyp A) (Homo sapiens, UniProt P62937); assay: Protease-free PPIase assay;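 also: cis to trans isomerization of SUC-AAPF-pNA by 2 nM enzyme, read as absorbance at 330 nm over 300 s at 10 °C, catalytic rate corrected for uncatalyzed background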
Sequence of Human recombinant cyclophilin A (Cyp A) (P62937 whole entry): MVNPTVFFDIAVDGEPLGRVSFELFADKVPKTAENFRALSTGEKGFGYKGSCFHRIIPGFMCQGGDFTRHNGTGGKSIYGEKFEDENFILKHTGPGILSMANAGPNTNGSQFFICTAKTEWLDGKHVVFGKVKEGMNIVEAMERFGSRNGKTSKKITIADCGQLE

Calcineurin = Calcineurin (Homo sapiens, UniProt P62937+P63098+Q08209); assay: Calcineurin Phosphatase (CaN) Assay with Cyp A (+CypA); settings: for IC50: read-out: Calcineurin Phosphatase (CaN) Assay (+CypA) IC50, in the presence of Cyp A
Sequence of Calcineurin (P63098 whole entry, other chains not shown): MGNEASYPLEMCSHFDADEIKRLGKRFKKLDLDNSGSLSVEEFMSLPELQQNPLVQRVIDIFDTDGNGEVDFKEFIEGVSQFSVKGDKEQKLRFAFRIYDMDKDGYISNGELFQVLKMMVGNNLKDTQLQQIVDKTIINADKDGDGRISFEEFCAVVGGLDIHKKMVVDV
Sequence of Calcineurin (P62937 whole entry, other chains not shown): as the sequence (P62937 whole entry) above

[2] = Water Solubility Assay (measured in pH 7.8 buffer); type: physicochemical;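 also: precipitation onset detected as rise in absorbance at 650 nm across increasing concentrations, after shaking for 18 h, blank wells receiving DMSO only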
Description: The aqueous solubility of a compound of Formula I in buffer (pH 7.8) was measured by recording the onset of precipitation of the compound as a function of increasing concentration. The onset of precipitation, if it occurred, was detected by an increase in absorbance at 650 nm.
Assay Buffer: 35 mM HEPES pH 7.8
Stock solutions of Control and Test Compounds: 10 mM in 100% DMSO
10 mM stock solutions of control and test compounds were prepared in 100% DMSO.
Assay buffer (247.5 μl) was placed into flat bottomed transparent 96-well plate. For blank samples DMSO (2.5 μl) was added. For test and control samples 2.5 μl of the appropriate DMSO dilution stocks were added to the appropriate well. All test and control compounds were performed in triplicate.
The plates were sealed with adhesive plate seal and shaken at 250 rpm at 25° C. for 18 h on a plate shaker.
After incubation the plate seals were taken off and any bubbles observed in wells removed. The plates were read on a SpectraMaxM5 with a 5 s pre-shake at 650 nm.
Data files were transferred to the appropriate worksheet and the solubility range of the compounds was calculated from the data.

[3] = read-out: Protease-free PPIase Assay Ki, Cyclophilin A (Cyp A) inhibitory activity
[4] = read-out: Protease-free PPIase Assay Ki, cyclophilin A, 10 °C
[5] = 35 mM HEPES pH 7.8, 1% DMSO, 25 °C, 18 h, read-out: Water Solubility Assay, concentration at which the compound remains in solution

| Structure (SMILES) | Ki [1, 3] [nM] | IC50 (Calcineurin) [nM] | Ki [1, 4] [nM] | IC50 (Calcineurin; 1:1 complex with inhibitor) [nM] | solubility at 18 h [2, 5] [µM] | other results |
| --- | --- | --- | --- | --- | --- | --- |
| CCC1NC(=O)C(C(O)C(C)CCN2CCCCC2C(F)(F)F)N(C)C(=O)C(C(C)C)N(C)C(=O)C(CC(C)C)N(C)C(=O)C(CC(C)C)N(C)C(=O)C(C)NC(=O)C(C)NC(=O)C(CC(C)C)N(C)C(=O)C(C(C)C)NC(=O)C(CC(C)C)N(C)C(=O)C(C)N(C)C1=O (mixture of isomers) [Compound EB, [(3R,4R,5S)-4-Hydroxy-3-methyl-5-(methylamino)-1-(2-trifluoromethyl-piperidin-1-yl)-hexanoic acid]^1[(R)-methyl-Sar]^3 cyclosporin A] | 3.7 | > 10000 |  |  |  |  |
| CCC1NC(=O)C(C(O)C(C)CCN2CCOCC2C(F)(F)F)N(C)C(=O)C(C(C)C)N(C)C(=O)C(CC(C)C)N(C)C(=O)C(CC(C)C)N(C)C(=O)C(C)NC(=O)C(C)NC(=O)C(CC(C)C)N(C)C(=O)C(C(C)C)NC(=O)C(CC(C)C)N(C)C(=O)C(C)N(C)C1=O (mixture of isomers) [Compound EC, [(3R,4R,5S)-4-Hydroxy-3-methyl-5-(methylamino)-1-(3-trifluoromethyl-morpholin-4-yl)-hexanoic acid]^1[(R)-methyl-Sar]^3 cyclosporin A] | 5.2 | > 10000 |  |  |  |  |
| CC[C@H]1NC(=O)[C@@H]([C@H](O)[C@H](C)CCN2C[C@H]3CN(C)C[C@H]3C2)N(C)C(=O)[C@@H](C(C)C)N(C)C(=O)[C@@H](CC(C)C)N(C)C(=O)[C@@H](CC(C)C)N(C)C(=O)[C@H](C)NC(=O)[C@@H](C)NC(=O)[C@@H](CC(C)C)N(C)C(=O)[C@@H](C(C)C)NC(=O)[C@H](CC(C)C)N(C)C(=O)[C@@H](C)N(C)C1=O (relative stereo) [Compound O, [(3R,4R,5S)-4-Hydroxy-3-methyl-5-(methylamino)-1-(N-(3aR*,6aS*)-2-methyloctahydropyrrolo[3,4-c]pyrrolo)-hexanoic acid]^1[(R)-methyl-Sar]^3 cyclosporin A] |  |  | 8.2 | > 10000 | >100 |  |
| CC[C@@H]1NC(=O)[C@H]([C@H](O)[C@H](C)CCCC(=O)N2C[C@H]3CN(C)C[C@H]3C2)N(C)C(=O)[C@H](C(C)C)N(C)C(=O)[C@H](CC(C)C)N(C)C(=O)[C@H](CC(C)C)N(C)C(=O)[C@@H](C)NC(=O)[C@H](C)NC(=O)[C@H](CC(C)C)N(C)C(=O)[C@H](C(C)C)NC(=O)[C@H](CC(C)C)N(C)C(=O)[C@@H](C)N(C)C1=O (relative stereo) [Compound ZZ, [(5R,6R,7S)-6-hydroxy-5-methyl-7-(methylamino)-1-(N-(3aR*,6aS*)-2-methyloctahydropyrrolo[3,4-c]pyrrolo)-1-oxo-octanoic acid]1[(R)-methyl-Sar]3 cyclosporin A] |  |  | 2.6 | > 10000 | >100 |  |
| CCC1NC(=O)C(C(O)C(C)CCN2CCOCC2)N(C)C(=O)C(C(C)C)N(C)C(=O)C(CC(C)C)N(C)C(=O)C(CC(C)C)N(C)C(=O)C(C)NC(=O)C(C)NC(=O)C(CC(C)C)N(C)C(=O)C(C(C)C)NC(=O)C(CC(C)C)N(C)C(=O)C(CC)N(C)C1=O [Compound AB, [(3R,4R,5S)-4-hydroxy-3-methyl-5-(methylamino)-1-N-morpholino-hexanoic acid]^1[(R)-ethyl-Sar]^3 cyclosporin A] |  |  | 5.6 | > 10000 | >100 |  |
| CC[C@H]1NC(=O)[C@@H]([C@H](O)[C@H](C)CCN2CCOCC2)N(C)C(=O)[C@@H](C(C)C)N(C)C(=O)[C@@H](CC(C)C)N(C)C(=O)[C@@H](CC(C)C)N(C)C(=O)[C@H](C)NC(=O)[C@@H](C)NC(=O)[C@@H](CC(C)C)N(C)C(=O)[C@@H](C(C)C)NC(=O)[C@H](CC(C)C)N(C)C(=O)[C@@H](CSCCN(CC)CC)N(C)C1=O [Compound AC, [(3R,4R,5S)-4-Hydroxy-3-methyl-5-(methylamino)-1-N-morpholino-hexanoic acid]^1[(S)-2-diethylaminoethylthiomethyl-Sar]^3 cyclosporin A] |  |  | 7.5 | > 10000 | >100 |  |
| CCC1NC(=O)C(C(O)C(C)CCN2CCCOCC2)N(C)C(=O)C(C(C)C)N(C)C(=O)C(CC(C)C)N(C)C(=O)C(CC(C)C)N(C)C(=O)C(C)NC(=O)C(C)NC(=O)C(CC(C)C)N(C)C(=O)C(C(C)C)NC(=O)C(CC(C)C)N(C)C(=O)C(COCCN(CC)CC)N(C)C1=O [Compound AD, [(3R,4R,5S)-4-Hydroxy-3-methyl-5-(methylamino)-1-N-homomorpholino-hexanoic acid]^1[(R)-2-diethylaminoethyloxymethyl-Sar]^3 cyclosporin A] |  |  | 18 | > 10000 |  |  |
| CC[C@H]1NC(=O)[C@@H]([C@H](O)[C@H](C)CCCC(=O)N2CCOCC2)N(C)C(=O)[C@@H](C(C)C)N(C)C(=O)[C@@H](CC(C)C)N(C)C(=O)[C@@H](CC(C)C)N(C)C(=O)[C@H](C)NC(=O)[C@@H](C)NC(=O)[C@@H](CC(C)C)N(C)C(=O)[C@@H](C(C)C)NC(=O)[C@H](CC(C)C)N(C)C(=O)CN(C)C1=O [Compound E, [(5R,6R,7S)-6-hydroxy-5-methyl-7-(methylamino)-1-N-morpholino-1-oxo-octanoic acid]^1 cyclosporin A] |  |  |  | > 10000 |  |  |
| CCC1NC(=O)C(C(O)C(C)CCN2CCCCO2)N(C)C(=O)C(C(C)C)N(C)C(=O)C(CC(C)C)N(C)C(=O)C(CC(C)C)N(C)C(=O)C(C)NC(=O)C(C)NC(=O)C(CC(C)C)N(C)C(=O)C(C(C)C)NC(=O)C(CC(C)C)N(C)C(=O)C(C)N(C)C1=O [Compound ED, [(3R,4R,5S)-4-Hydroxy-3-methyl-5-(methylamino)-1-([1,2]oxazinan-2-yl)-hexanoic acid]^1[(R)-methyl-Sar]^3 cyclosporin A] | 3.8 | > 10000 |  |  |  |  |
| CCC1NC(=O)C(C(O)C(C)CCN2CCn3cc(C(F)(F)F)nc3C2)N(C)C(=O)C(C(C)C)N(C)C(=O)C(CC(C)C)N(C)C(=O)C(CC(C)C)N(C)C(=O)C(C)NC(=O)C(C)NC(=O)C(CC(C)C)N(C)C(=O)C(C(C)C)NC(=O)C(CC(C)C)N(C)C(=O)C(C)N(C)C1=O [Compound EE, [(3R,4R,5S)-4-Hydroxy-3-methyl-5-(methylamino)-1-(2-trifluoromethyl-5,6-dihydro-8H-imidazo[1,2-a]pyrazin-7-yl)-hexanoic acid]^1[(R)-methyl-Sar]^3 cyclosporin A] | 9.1 | > 10000 |  |  |  |  |
| CCC1NC(=O)C(C(O)C(C)CCN2CCOCC2)N(C)C(=O)C(C(C)C)N(C)C(=O)C(CC(C)C)N(C)C(=O)C(CC(C)C)N(C)C(=O)C(C)NC(=O)C(C)NC(=O)C(CC(C)C)N(C)C(=O)C(C(C)C)NC(=O)C(C(C)C)N(CC)C(=O)C(C)N(C)C1=O [Compound EJ, [(3R,4R,5S)-4-Hydroxy-3-methyl-1-(morpholin-4-yl)-hexanoic acid]^1[(R)-methyl-Sar]^3[Ethyl-Val]^4 cyclosporin A] (cyclo([X1]V[NMeL]AA[NMeL][NMeL][NMeV][X2][Abu][NMeA]); configuration not given here) | 9 | > 10000 |  |  |  | solubility at 18 h ([2]; pH 7.8 buffer, read-out: Water Solubility Assay): >100 µM |
| CC[C@H]1NC(=O)[C@@H]([C@H](O)[C@H](C)CCN2CC(F)(F)OC(F)(F)C2)N(C)C(=O)[C@@H](C(C)C)N(C)C(=O)[C@@H](CC(C)C)N(C)C(=O)[C@@H](CC(C)C)N(C)C(=O)[C@H](C)NC(=O)[C@@H](C)NC(=O)[C@@H](CC(C)C)N(C)C(=O)[C@@H](C(C)C)NC(=O)[C@H](CC(C)C)N(C)C(=O)[C@@H](CO)N(C)C1=O [Compound EO] |  |  |  |  |  | Ki [1]: 13 nM; immunosuppressive potential (Calcineurin; in words, as measured by the MLR and CaN assays): more immunosuppressive potential than others; solubility at 18 h ([2]; 35 mM HEPES buffer pH 7.8, 25 °C, aqueous buffer, kinetic from dmso stock, pH 7.8 buffer, read-out: Water Solubility Assay): 10 to 25 µM (≈ 13.6 to 34.1 µg/mL) |
| CC[C@H]1NC(=O)[C@@H]([C@H](O)[C@H](C)CCCCCN2CCOCC2)N(C)C(=O)[C@@H](C(C)C)N(C)C(=O)[C@@H](CC(C)C)N(C)C(=O)[C@@H](CC(C)C)N(C)C(=O)[C@H](C)NC(=O)[C@@H](C)NC(=O)[C@@H](CC(C)C)N(C)C(=O)[C@@H](C(C)C)NC(=O)[C@H](CC(C)C)N(C)C(=O)[C@@H](C)N(C)C1=O [Compound G, [(6R,7R,8S)-7-hydroxy-6-methyl-8-(methylamino)-1-N-morpholino-nonanoic acid]^1[(R)-methyl-Sar]^3 cyclosporin A] |  |  | 6.2 | > 10000 | >100 |  |
| CC[C@H]1NC(=O)[C@@H]([C@H](O)[C@H](C)CCN2CCOCC2)N(C)C(=O)[C@@H](C(C)C)N(C)C(=O)[C@@H](CC(C)C)N(C)C(=O)[C@@H](CC(C)C)N(C)C(=O)[C@H](C)NC(=O)[C@@H](C)NC(=O)[C@@H](CC(C)C)N(C)C(=O)[C@@H](C(C)C)NC(=O)[C@H](CC(C)C)N(C)C(=O)[C@@H](SC)N(C)C1=O [Compound K, [(3R,4R,5S)-4-hydroxy-3-methyl-5-(methylamino)-1-N-morpholino-hexanoic acid]^1[(S)-thiomethyl-Sar]^3 cyclosporin A] |  |  |  | > 10000 |  |  |
| CC[C@H]1NC(=O)[C@@H]([C@H](O)[C@H](C)CCCC(=O)N(CC)CC)N(C)C(=O)[C@@H](C(C)C)N(C)C(=O)[C@@H](CC(C)C)N(C)C(=O)[C@@H](CC(C)C)N(C)C(=O)[C@H](C)NC(=O)[C@@H](C)NC(=O)[C@@H](CC(C)C)N(C)C(=O)[C@@H](C(C)C)NC(=O)[C@H](CC(C)C)N(C)C(=O)[C@@H](C)N(C)C1=O [Compound U, [(5R,6R,7S)-6-hydroxy-5-methyl-7-(methylamino)-1-diethylamino-1-oxo-octanoic acid]^1[(R)-methyl-Sar]^3 cyclosporin A] |  |  | 4 | > 10000 |  |  |
